According to patent publication US20080161366A1, “AMINOALKYL SUBSTITUTED ARYL SULFAMIDE DERIVATIVES AND METHODS OF THEIR USE” (Wyeth, priority 2006, published 2008):
Structures can show the parent of a compound that is named as a salt.

molecular target: human norepinephrine transporter (hNET) (Homo sapiens, UniProt P23975); test: hNET uptake, Protocol B: cell based norepinephrine reuptake assay using recombinant hNET (MDCK-Net6 cells); details: NE uptake (Protocol B) IC50 (nM), MDCK-Net6 cells, 3H-NE 16 nM
Sequence (P23975 whole entry): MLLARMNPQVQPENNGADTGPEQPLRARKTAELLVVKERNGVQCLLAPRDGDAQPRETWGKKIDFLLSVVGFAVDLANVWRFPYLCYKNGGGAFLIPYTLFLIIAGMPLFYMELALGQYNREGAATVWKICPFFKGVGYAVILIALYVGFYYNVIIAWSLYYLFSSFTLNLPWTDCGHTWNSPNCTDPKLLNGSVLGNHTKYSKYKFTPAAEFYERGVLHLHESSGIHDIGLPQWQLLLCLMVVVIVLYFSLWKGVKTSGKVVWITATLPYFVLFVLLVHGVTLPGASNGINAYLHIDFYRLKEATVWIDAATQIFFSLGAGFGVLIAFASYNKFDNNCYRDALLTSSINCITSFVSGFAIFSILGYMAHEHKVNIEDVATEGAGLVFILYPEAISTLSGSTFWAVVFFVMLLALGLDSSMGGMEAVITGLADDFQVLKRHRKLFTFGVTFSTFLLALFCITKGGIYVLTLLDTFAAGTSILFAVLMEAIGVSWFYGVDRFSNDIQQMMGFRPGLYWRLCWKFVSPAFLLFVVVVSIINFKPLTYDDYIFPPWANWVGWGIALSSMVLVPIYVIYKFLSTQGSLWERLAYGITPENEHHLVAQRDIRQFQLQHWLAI

| IC50 [nM] | Molecule |
| --- | --- |
| 125 | Cc1ccc(N2c3ccccc3N(CCCCN)S2(=O)=O)c(F)c1 [Example 105, 4-[3-(2-fluoro-4-methylphenyl)-2,2-dioxido-2,1,3-benzothiadiazol-1(3H)-yl]butan-1-amine] |
| 203 | O=S1(=O)N(CCCNC2CC2)c2ccccc2N1c1ccc(F)cc1F [Example 85, N-{3-[3-(2,4-Difluorophenyl)-2,2-dioxido-2,1,3-benzothiadiazol-1(3H)-yl]propyl}cyclopropanamine hydrochloride] |
| 109 | CNCCCN1c2ccccc2N(c2ccc(F)c(F)c2F)S1(=O)=O [Example 113, 3-[2,2-dioxido-3-(2,3,4-trifluorophenyl)-2,1,3-benzothiadiazol-1(3H)-yl]-N-methylpropan-1-amine] |
| 6.87 | CNCCCN1c2ccccc2N(c2ccc(F)cc2)S1(=O)=O [Example 6, 3-[3-(4-fluorophenyl)-2,2-dioxido-2,1,3-benzothiadiazol-1(3H)-yl]-N-methylpropan-1-amine] |
| 85 | CNCCCN1c2ccccc2N(c2cccnc2)S1(=O)=O [Example 34, 3-(2,2-dioxido-3-pyridin-3-yl-2,1,3-benzothiadiazol-1(3H)-yl)-N-methylpropan-1-amine hydrochloride] |
| 153 | CN(C)CCCN1c2ccccc2N(c2ccc(F)cc2F)S1(=O)=O [Example 118, 3-[3-(2,4-difluorophenyl)-2,2-dioxido-2,1,3-benzothiadiazol-1(3H)-yl]-N,N-dimethylpropan-1-amine hydrochloride] |
| 14.1 | NCCCCCN1c2ccccc2N(c2ccccc2F)S1(=O)=O [Example 65, 5-[3-(2-fluorophenyl)-2,2-dioxido-2,1,3-benzothiadiazol-1(3H)-yl]pentan-1-amine] |
| 13.1 | NCCCN1c2ccccc2N(c2ccccc2F)S1(=O)=O [Example 56, 3-[3-(2-fluorophenyl)-2,2-dioxido-2,1,3-benzothiadiazol-1(3H)-yl]propan-1-amine] |
| 147 | CNCCCN1c2ccccc2N(c2cccc(OC(F)(F)F)c2)S1(=O)=O [Example 49, 3-{2,2-dioxido-3-[3-(trifluoromethoxy)phenyl]-2,1,3-benzothiadiazol-1(3H)-yl}-N-methylpropan-1-amine hydrochloride] |
| 86.3 | CNCCCN1c2c(F)cccc2N(c2cccc(F)c2)S1(=O)=O [Example 42, 3-[7-fluoro-3-(3-fluorophenyl)-2,2-dioxido-2,1,3-benzothiadiazol-1(3H)-yl]-N-methylpropan-1-amine] |
| 591 | Cc1ccc(N2c3ccccc3N(CCCCN(C)C)S2(=O)=O)c(F)c1 [Example 106, 4-[3-(2-fluoro-4-methylphenyl)-2,2-dioxido-2,1,3-benzothiadiazol-1(3H)-yl]-N,N-dimethylbutan-1-amine] |
| 3 | CNCCCN1c2ccccc2N(c2ccc(O)cc2F)S1(=O)=O [Example 92, 3-fluoro-4-{3-[3-(methylamino)propyl]-2,2-dioxido-2,1,3-benzothiadiazol-1(3H)-yl}phenol hydrochloride] |
| 434 | CCc1ccc(N2c3ccccc3N(CCCNC)S2(=O)=O)nc1 [Example 29, 3-[3-(5-ethylpyridin-2-yl)-2,2-dioxido-2,1,3-benzothiadiazol-1(3H)-yl]-N-methylpropan-1-amine hydrochloride] |
| 282 | CNCCCN1c2ccccc2N(c2cnccc2C)S1(=O)=O [Example 33, N-methyl-3-[3-(4-methylpyridin-3-yl)-2,2-dioxido-2,1,3-benzothiadiazol-1(3H)-yl]propan-1-amine hydrochloride] |
| 4.17 | CNCCCN1c2ccccc2N(c2ccc(F)cc2F)S1(=O)=O [Example 75, 3-[3-(2,4-difluorophenyl)-2,2-dioxido-2,1,3-benzothiadiazol-1(3H)-yl]-N-methylpropan-1-amine hydrochloride] |
| 9 | CNCCCN1c2cccc(F)c2N(c2ccc(F)cc2F)S1(=O)=O [Example 79, 3-[3-(2,4-Difluorophenyl)-4-fluoro-2,2-dioxido-2,1,3-benzothiadiazol-1(3H)-yl]-N-methylpropan-1-amine hydrochloride] |
| 195 | O=S1(=O)N(CCCNC2CCCC2)c2ccccc2N1c1c(F)cccc1F [Example 129, N-{3-[3-(2,6-difluorophenyl)-2,2-dioxido-2,1,3-benzothiadiazol-1(3H)-yl]propyl}cyclopentanamine hydrochloride] |
| 43 | O=S1(=O)N(CCCNCCO)c2ccccc2N1c1ccccc1F [Example 135, 2-({3-[3-(2-fluorophenyl)-2,2-dioxido-2,1,3-benzothiadiazol-1(3H)-yl]propyl}amino)ethanol] |
| 82 | CNCCCCN1c2ccccc2N(c2ccc(F)cc2Cl)S1(=O)=O [Example 87, 4-[3-(2-chloro-4-fluorophenyl)-2,2-dioxido-2,1,3-benzothiadiazol-1(3H)-yl]-N-methylbutan-1-amine hydrochloride] |
| 7.06 | CNCCCN1c2ccccc2N(c2ccccc2C)S1(=O)=O [Example 16, N-methyl-3-[3-(2-methylphenyl)-2,2-dioxido-2,1,3-benzothiadiazol-1(3H)-yl]propan-1-amine] |

| IC50 [nM] | Molecule |
| --- | --- |
| 21 | O=S1(=O)N(CCCCNC2CC2)c2ccccc2N1c1c(F)cccc1F [Example 86, N-{4-[3-(2,6-Difluorophenyl)-2,2-dioxido-2,1,3-benzothiadiazol-1(3H)-yl]butyl}cyclopropanamine hydrochloride] |
| 84.1 | CNCCCN1c2ccccc2N(c2cccc(Cl)c2)S1(=O)=O [Example 68, 3-[3-(3-Chlorophenyl)-2,2-dioxido-2,1,3-benzothiadiazol-1(3H)-yl]-N-methylpropan-1-amine hydrochloride] |
| 4.26 | CNCCCN1c2ccc(F)cc2N(c2ccccc2)S1(=O)=O [Example 44, 3-(5-fluoro-2,2-dioxido-3-phenyl-2,1,3-benzothiadiazol-1(3H)-yl)-N-methylpropan-1-amine] |
| 2.73 | CNCCCN1c2ccccc2N(c2cc(F)cc(F)c2)S1(=O)=O [Example 47, 3-[3-(3,5-difluorophenyl)-2,2-dioxido-2,1,3-benzothiadiazol-1(3H)-yl]-N-methylpropan-1-amine hydrochloride] |
| 3270 | NCCCCN1c2ccccc2N(c2ccccc2F)S1(=O)=O [Example 58, 4-[3-(2-fluorophenyl)-2,2-dioxido-2,1,3-benzothiadiazol-1(3H)-yl]butan-1-amine] |
| 411 | CN(C)CCCCN1c2ccccc2N(c2ccc(F)cc2F)S1(=O)=O [Example 120, 4-[3-(2,4-difluorophenyl)-2,2-dioxido-2,1,3-benzothiadiazol-1(3H)-yl]-N,N-dimethylbutan-1-amine hydrochloride] |
| 2.63 | CNCCCN1c2ccccc2N(c2ccccc2)S1(=O)=O [Example 5, 3-(2,2-dioxido-3-phenyl-2,1,3-benzothiadiazol-1(3H)-yl)-N-methylpropan-1-amine] |
| 20.5 | CNCCCN1c2ccccc2N(c2ccc(Cl)cc2)S1(=O)=O [Example 1, 3-[3-(4-chlorophenyl)-2,2-dioxido-2,1,3-benzothiadiazol-1(3H)-yl]-N-methylpropan-1-amine] |
| 60.9 | CNCCCN1c2cccnc2N(c2ccccc2)S1(=O)=O [Example 24, 3-(2,2-dioxido-3-phenyl[1,2,5]thiadiazolo[3,4-b]pyridin-1(3H)-yl)-N-methylpropan-1-amine] |
| 325 | CNCCCN1c2ccccc2N(c2ccc(OC)cc2F)S1(=O)=O [Example 91, 3-[3-(2-fluoro-4-methoxyphenyl)-2,2-dioxido-2,1,3-benzothiadiazol-1(3H)-yl]-N-methylpropan-1-amine hydrochloride] |
| 3170 | CNCCCN1c2ccccc2N(c2cccc(C(F)(F)F)c2)S1(=O)=O [Example 51, 3-{2,2-dioxido-3-[3-(trifluoromethyl)phenyl]-2,1,3-benzothiadiazol-1(3H)-yl}-N-methylpropan-1-amine hydrochloride] |
| 12.2 | CNCCCN1c2ccccc2N(c2cccc(F)c2)S1(=O)=O [Example 12, 3-[3-(3-fluorophenyl)-2,2-dioxido-2,1,3-benzothiadiazol-1(3H)-yl]-N-methylpropan-1-amine] |
| 61 | CNCCCCCN1c2ccccc2N(c2ccc(F)cc2F)S1(=O)=O [Example 115, 5-[3-(2,4-difluorophenyl)-2,2-dioxido-2,1,3-benzothiadiazol-1(3H)-yl]-N-methylpentan-1-amine hydrochloride] |
| 20.6 | CNCCCN1c2cc(F)ccc2N(c2ccccc2)S1(=O)=O [Example 35, 3-(6-fluoro-2,2-dioxido-3-phenyl-2,1,3-benzothiadiazol-1(3H)-yl)-N-methylpropan-1-amine] |
| 11 | CNCCCN1c2ccccc2N(c2ccc(F)cc2F)S1(=O)=O [Example 114, 3-[3-(2,4-difluorophenyl)-2,2-dioxido-2,1,3-benzothiadiazol-1(3H)-yl]-N-methylpropan-1-amine hydrochloride] |
| 10.8 | CNCCCN1c2ccccc2N(c2cccc(OC)c2)S1(=O)=O [Example 17, 3-[3-(3-methoxyphenyl)-2,2-dioxido-2,1,3-benzothiadiazol-1(3H)-yl]-N-methylpropan-1-amine] |
| 13.9 | CNCCCN1c2ccc(C)cc2N(c2ccccc2)S1(=O)=O [Example 38, N-methyl-3-(5-methyl-2,2-dioxido-3-phenyl-2,1,3-benzothiadiazol-1(3H)-yl)propan-1-amine] |
| 1170 | CC(C)NCCCCN1c2ccccc2N(c2c(F)cccc2F)S1(=O)=O [Example 123, 4-[3-(2,6-difluorophenyl)-2,2-dioxido-2,1,3-benzothiadiazol-1(3H)-yl]-N-isopropylbutan-1-amine hydrochloride] |
| 11.7 | CNCCCN1c2ccccc2N(c2ncccc2C)S1(=O)=O [Example 27, N-methyl-3-[3-(3-methylpyridin-2-yl)-2,2-dioxido-2,1,3-benzothiadiazol-1(3H)-yl]propan-1-amine hydrochloride] |

same assay, conditions: read-out: NE uptake (Protocol B) IC50; MDCK-Net6 cells, 3H-NE 16 nM

| Molecule | IC50 [nM] |
| --- | --- |
| N-{3-[3-(2-fluorophenyl)-2,2-dioxido-2,1,3-benzothiadiazol-1(3H)-yl]butyl}cyclopropanamine [Example 99] | 22 |
